Data on one compound can be found in patent US9169223B2, “Functionalised antifouling compounds and use thereof” (Agency for Science, Technology and Research, priority 2010, dated 2015).

One series has as its system barnacle cyprids. The series can be described thus: Settlement assay with barnacle cyprids. Format: in vivo, Amphibalanus amphitrite. Here is the method:
Biological assays were conducted with larval barnacles. Barnacles are dominant and tenacious members of marine fouling communities, and often serve as a substrate for less resistant organisms. Therefore, historically they have been used as a model organism for antifouling studies. To determine the biological response of larvae to test compounds, two bioassays were performed: settlement (using settlement stage cyprids), and toxicity (using nauplii).
(§1) Stock solutions of each compound were made at 50 mg/ml. Pure compounds were diluted in DMSO and sonicated. Stock solutions were stored at −20° C. in 4 ml amber screw cap vials until use. For bioassays, a small amount of stock solution was diluted in 1 μm filtered seawater (in a glass scintillation vial). The solution was then sonicated for 10 minutes. To obtain the desired concentration range, serial dilutions of the test solution were made. As control, a serial dilution of the equivalent amounts of DMSO in seawater was used.
Nauplii were cultured as described above, and then reared at 25° C. on an algal mixture of 1:1 v/v of Tetraselmis suecica and Chaetoceros muelleri (approximately density 5×10^5 cells per ml). Under these conditions, nauplii typically metamorphose to cyprids in 5 days. Cyprids were aged at 4° C. for 2 days.
Settlement assays were conducted in 7 ml neutral glass vials (Samco® T103/V1; 34×23 mm diameter). For assays, each solution was made at twice the desired final concentration; 0.5 ml of this solution was transferred to vials. To each vial, cyprids were added by transferring 0.5 ml filtered seawater containing 20-40 aged cyprids. As in toxicity assays: each compound at each concentration was run in triplicate with cyprids from a single batch; two controls (filtered seawater and DMSO) were run along with each assays; and the overall assay was conducted twice, using two different batches of cyprids.
Assays were conducted for 24 hours, after which time the number of settled cyprids, the number of free swimming (unsettled) cyprids, and the number of dead cyprids were counted for each vial. Both metamorphosed, juvenile barnacles and cyprids that had committed to settlement (glued themselves to the vial), but had not yet metamorphosed, were counted as ‘settled’. Data was expressed as percent settlement. […] If ED50 could not be calculated using probit analysis, values were extrapolated based on plotted data.

Series [1] is described as follows: Observation on standing (note in characterisation). The class given is physicochemical. The settings on record: HRMS consistent with free alcohol. Here is the method: To a round bottomed flask containing DMAP (2 mg) was added a solution of 2-(4-hydroxymethyl)phenyl-1-(piperidin-1-yl)hexanone (30 mg, 0.10 mmol) in dry dichloromethane (2 mL). To the resulting mixture was added dry NEt3 (208 μL, 1.5 mmol) followed by acetic anhydride (100 μL, 1.0 mmol). The resulting mixture was allowed to stir for 3 hours. After this time, the reaction mixture was washed with saturated NaHCO3, water and then brine and the organic phase was dried (Na2SO4) and concentrated under reduced pressure. The title compound was obtained as a colourless oil (20 mg, 60%) following purification by flash column chromatography (50% EtOAc in hexane, Rf=0.7). ^1H NMR (400 MHz, CDCl3) δ 0.86 (t, J=7 Hz, 3H); 1.0-1.2 (2×m, 2H); 1.2-1.5 (multiple signals, 8H); 1.68 (m, 1H); 4.53 (m+s, 4H); 3.33 (m, 1H), 3.39 (m, 1H); 3.49 (m, 1H); 3.60 (m, 1H); 3.70 (t, J=7 Hz, 1H); 5.07 (s, 2H); 7.72 (m, 4H). ^13C NMR (75 MHz, CDCl3) δ14.01, 21.08, 22.72, 24.57, 25.60, 26.20, 30.09, 34.77, 43.20, 46.66, 48.38, 66.07, 128.03, 128.58, 134.24, 141.02, 171.09, 171.17.
To a round bottomed flask containing DMAP (2 mg) was added a solution of 2-(4-hydroxymethyl)phenyl-1-(piperidin-1-yl)hexanone (30 mg, 0.10 mmol) in dry CH2Cl2 (2 mL). To the resulting mixture was added dry NEt3 ([…], 1.5 mmol) followed by acetic anhydride (100 μL, 1.0 mmol). The resulting mixture was allowed to stir for 3 hours. […]

The test system of series [2] is stage II naupliar larvae of the barnacle Amphibalanus amphitrite. The series can be described thus: Toxicity assay with barnacle nauplii. The class given is in vivo. The settings on record: Amphibalanus amphitrite (barnacle), stage II naupliar larvae, in vivo. The procedure:
Biological assays were conducted with larval barnacles. Barnacles are dominant and tenacious members of marine fouling communities, and often serve as a substrate for less resistant organisms. Therefore, historically they have been used as a model organism for antifouling studies. To determine the biological response of larvae to test compounds, two bioassays were performed: settlement (using settlement stage cyprids), and toxicity (using nauplii). Procedures followed methods standard in the field, which were first described by Rittschof et al. (1992).
as §1
Toxicity assays employed stage II naupliar larvae of the barnacle Amphibalanus amphitrite (previously Balanus amphitrite: Pitombo, 2004). Assay procedures were modified from Rittschof et al. (1992). Adult A. amphitrite were collected from inter-tidal areas near the Kranji mangrove, Singapore. Larval culture was based on Rittschof et al. (1984). Following collection, nauplii were concentrated for use in bioassays by placing a fiber optic light source at one side of the container, and pipetting from the resulting dense cloud of nauplii.
In order to determine LD50 values for each compound, compounds were tested over a range of concentrations between 0-50 μg/ml. For each assay, each compound at each concentration was tested in triplicate with a single batch of nauplii. The overall assay was conducted twice, using two different batches of nauplii. Two controls were run along with each assay (in triplicate): filtered seawater only, and DMSO at […] (since DMSO was used as a solvent for test compounds, this concentration is equivalent to the concentration of DMSO in the highest test compound concentration).
For assays, approximately 20 nauplii (in 50 μl filtered seawater) were added to 1 ml test solution or control, in a 2 ml glass vial (La Pha Pack® PN 11-14-0544). Assays were run for 22-24 hours at 25-27° C. After this time, living and dead nauplii were counted using a Bogorov tray. Nauplii that were approaching death were scored as dead. Data for all assays was combined and LD50 was calculated (where possible) using a probit analysis (Libermann, 1983). If LD50 could not be calculated using probit analysis, values were extrapolated based on plotted data.

In brackets after ≈: the same amount, converted by molar mass. A value given as a limit tells only on which side of the number the result lay.

Regarding `CCCCC(C(=O)N1CCCCC1)c1ccc(COC(C)=O)cc1` (stereo not shown) [Compound 16.3, 2-(4-acetoxymethyl)phenyl-1-(piperidin-1-yl)hexanone], the IC50 in the series on barnacle cyprids (Amphibalanus amphitrite, 24 h, anti-settlement, barnacle cyprids, 24 hours, concentration causing 50% reduction in settlement vs controls, read-out: ED50 (the source's name)) was found to be 6.35 µg/mL (≈ 19.2 µM). Also, the “TR (LD50/ED50)” value in the series on barnacle cyprids (therapeutic ratio, LD50 (nauplii) / ED50 (cyprids)) is listed as greater than 7.87. For the same compound, the stability on standing entry in series [1] is reported as “hydrolyses on standing”. The compound also yielded an LD50 in series [2] greater than 50 µg/mL.
